From paper PMC8778022, “Synthesis and Biological Activity of 3-(Heteroaryl)quinolin-2(1H)-ones Bis-Heterocycles as Potential Inhibitors of the Protein Folding Machinery Hsp90” (Molecules, 2022)
“Also recorded” adds a separate entry of the source.

Experiments:
[1] = system: MDA-MB-231 cells; assay: MTS cell viability assay, MDA-MB-231 cells, 72 h; format: cell-based, human; conditions: % of viable cells compared to untreated cells 100%; for viability at 10 µM / viability at 25 µM / viability at 15 µM: Homo sapiens, MDA-MB-231, 72 h; for viability at 25 µM / Cell viability [%] MDA-MB-231: 25 µM
Method: (§1) Upon completion of their syntheses, the in vitro activity of quinolone derivatives 3a–f, 4a–h, and 5a,b was evaluated by their growth-inhibitory potency in three cancer cell lines. At first, the viability of the synthesized compounds was examined with the MDA-MB-231 […] breast cancer cell line at concentrations of 10 µM, 15 µM, and 25 µM. Prostate cancer PC-3 cells and human fetal lung fibroblast MRC-5 cell lines were also subjected to this series of compounds at a unique concentration of 15 µM.
(§2) MDA-MB-231 cells were grown in L15 supplemented with 15% serum, 2 mM glutamine, and 22 mM sodium bicarbonate in the presence of Penicillin/Streptomycin antibiotic mixture. PC-3 cells were cultured in RPMI 1640 supplemented with 10% serum and 2 mM glutamine in the presence of Penicillin/Streptomycin antibiotic mixture. MRC-5 cells were cultured in EMEM supplemented with 10% serum and 2 mM glutamine in the presence of Penicillin/Streptomycin antibiotic mixture (Reagents were purchased from Sigma Aldrich, Saint-Quentin-Fallavier, France).
(§3) Cells were treated for 72 h with 10, 15, and 25 µM of the selected substances. Control cells were treated with the equivalent in DMSO.
(§4) Cell survival was assessed using the CellTiter Aqueous One Proliferation assay (Promega, Charbonnières-les-Bains, France) whereby 2500 or 5000 cells per well were seeded in 96-well plates in 100 µL. At the end of the treatment, 20 µL of reagent was added, and absorbance readings were taken at 492 nm on a 96-well plate reader after 3 h of contact (on average).

[2] = system: PC-3 cells; assay: MTS cell viability / growth inhibition assay, PC-3 cells, 72 h; format: cell-based, human; conditions: for GI50: PC-3, concentration needed to reduce cell growth by 50%, 72 h treatment, estimated, read-out: GI50 anti-proliferative effect PC-3; for viability at 15 µM: PC-3, 72 h
Method: as §1
Then, the growth inhibitory activities against PC-3 prostate cancer cell line were measured for the selected 3-heteroaryl-quinolin-2(1H)-one derivatives 3a–e.
as §2, §3, §4

[3] = system: Hsp90α/β; assay: Western blot of Hsp90 level in PC-3 cells; format: cell-based, human; conditions: 15 µM, 72 h, without triggering the HSR
Method: (§5) For protein expression analysis, cells were seeded at a rate of 0.75 × 10^6 cells on a 25 cm^2 surface. At the end of the treatment the cells were washed and lysed with RIPA buffer (Sigma Aldrich, Saint-Quentin-Fallavier, France city, country) to which protease inhibitors (Sigma Aldrich, Saint-Quentin-Fallavier, France SIGMA) were added. After 30 min of lysis on ice, the samples were centrifuged (3500 rpm, 10 min) and stored at −20 °C. Total protein concentration was obtained using the Bio-rad Protein Assay reagent (Bio-Rad Laboratories, Marnes-la-Coquette, France city, country). […] Immunorevelation was performed as follows: 1 h saturation of the membrane with TBS-Tween (0.1%)–5% skim milk followed by overnight incubation in primary antibody solution (antibodies were from Santa Cruz Biotechnologies, Clinisciences, Nanterre, France or from Sigma Aldrich, Saint-Quentin-Fallavier, France)(See Table 3). After 1 h of washing in 0.1% TBS-Tween, the membranes were contacted with the second horseradish peroxidase-coupled antibody. Detection of the chemiluminescence signal (SuperSignal Pierce reagent, Fisher Scientific, Illkirch, France) was performed using the ChemiBis gel Imager (DNR Bio-Imaging Systems, Israel).
(§6) Figure 2 Effects of quinolone analogues 3a–e, 4e and 5b on HSP90 machinery protein levels and on CDK-4 stability. PC-3 cells were grown and exposed to Hsp90 inhibitors (3a–e, 4e and 5b, 15 µM) as described in Experimental section for 72 h and cell lysates were analyzed by Western blotting with regard to the levels of CDK-4, Hsp90α/β and Hsp70. NT corresponds to untreated cells; D, DMSO-treated cells were used as controls, GADPH level is used for control in protein loading on gels.

[4] = system: CDK-4; assay: Western blot of Hsp90 client protein CDK-4 in PC-3 cells; format: cell-based, human; conditions: for CDK-4 client protein level (Western blot): PC-3 cells, 15 µM, 72 h; for CDK-4 client protein level: as printed in abstract and conclusions
Method: as §5, §6

[5] = system: Hsp70; assay: Western blot of Hsp70 level in PC-3 cells; format: cell-based, human; conditions: 15 µM, 72 h, without triggering the HSR
Method: as §5, §6

[6] = MTS cell viability assay, MRC-5 cells, 72 h; format: cell-based, human; conditions: human, MRC-5 fetal lung fibroblast cells, % of viable cells compared to untreated cells 100%
Method: as §1, §2, §3, §4

[7] = system: SkBr3 cell lines; conditions: cell death, SkBr3; cited from earlier work
[8] = Homo sapiens, 15 µM, 72 h, MTS, % of viable cells compared to untreated cells 100%

O=c1c(-c2nc3ccccc3n2Cc2ccccc2)cc2ccccc2n1Cc1ccccc1 [3a]
viability at 10 µM [1]: < 47%
viability at 25 µM [1]: ~30%
GI50 ([2]; Homo sapiens): 48 µM

COc1ccc(Cn2c(-c3cc4ccccc4n(C)c3=O)nc3cc(C)c(C)cc32)cc1 [3b]
Hsp90 level (heat shock response) [3]: stabilize
CDK-4 client protein level (Western blot) [4]: more decreased
CDK-4 client protein level [4]: significant decrease
Hsp70 level (heat shock response) [5]: stabilize
viability at 25 µM [1]: ~30%
viability at 15 µM [2, 8]: ≥ 56%
GI50 ([2]; Homo sapiens): 28 µM
IC50 ([2]; Homo sapiens, as printed in abstract and b26, refers to Table 2 (PC-3, 72 h), read-out: IC50 anti-proliferative activity): 28 µM

Cn1c(=O)c(-c2nc3ccccc3s2)cc2ccccc21 [3c]
GI50 ([2]; Homo sapiens): 37 µM

CSc1ncnc2c1nc(-c1cc3ccccc3n(C)c1=O)n2Cc1ccccc1 [3e, 3-(6-Methylthiopurine)-2-quinolone]
viability at 15 µM [2, 8]: ≥ 56%
GI50 ([2]; Homo sapiens): 38 µM

COc1cc(-c2ncnc3c2nc(-c2cc4ccccc4n(C)c2=O)n3Cc2ccccc2)cc(OC)c1OC [4d, 3-[9-benzyl-6-(3,4,5-trimethoxyphenyl)-9H-purin-8-yl]-1-methylquinolin-2(1H)-one]
viability at 72 h, 15 µM [6]: 71 to 79%

Cc1cc(C)cc(-c2ncnc3c2nc(-c2cc4ccccc4n(C)c2=O)n3Cc2ccccc2)c1 [4e, 3-[9-benzyl-6-(3,5-dimethylphenyl)-9H-purin-8-yl]-1-methylquinolin-2(1H)-one]
viability at 72 h, 15 µM [6]: 71 to 79%
Hsp90 level (heat shock response) [3]: stabilize
CDK-4 client protein level (Western blot) [4]: degraded; also recorded: more decreased
CDK-4 client protein level [4]: significant decrease
Hsp70 level (heat shock response) [5]: stabilize
viability at 15 µM [2, 8]: ≥ 56%

Cn1c(=O)c(-c2nc3c(-c4ccc(F)cc4)ncnc3n2Cc2ccccc2)cc2ccccc21 [4h, 3-[9-benzyl-6-(4-fluorophenyl)-9H-purin-8-yl]-1-methylquinolin-2(1H)-one]
viability at 25 µM [1]: ~30%

COc1ccc(Nc2ncnc3c2nc(-c2cc4ccccc4n(C)c2=O)n3Cc2ccccc2)cc1 [5a, 3-{9-benzyl-6-[(4-methoxyphenyl)amino]-9H-purin-8-yl}-1-methylquinolin-2(1H)-one]
viability at 10 µM [1]: < 47%

COc1cc(Nc2ncnc3c2nc(-c2cc4ccccc4n(C)c2=O)n3Cc2ccccc2)cc(OC)c1OC [5b, 3-{9-benzyl-6-[(3,4,5-trimethoxyphenyl)amino]-9H-purin-8-yl}-1-methylquinolin-2(1H)-one]
Hsp90 level (heat shock response) [3]: stabilize
CDK-4 client protein level (Western blot) [4]: degraded
Hsp70 level (heat shock response) [5]: stabilize

CN1CCC(Oc2ccc3cc(-c4cc5ccccc5s4)c(=O)oc3c2)CC1 [(I)]
IC50 [7]: 0.98 µM

O=c1c(-c2nc3ccccc3n2Cc2ccccc2)cc2ccccc2n1Cc1ccccc1 [C00001]
viability at 72 h, 15 µM [6]: 80%
Cell viability [%] MDA-MB-231 [1]: 36%
viability at 15 µM [1]: 47%
viability at 15 µM [2, 8]: 70%

COc1ccc(Cn2c(-c3cc4ccccc4n(C)c3=O)nc3cc(C)c(C)cc32)cc1 [C00002]
viability at 72 h, 15 µM [6]: 95%
Cell viability [%] MDA-MB-231 [1]: 23%
viability at 10 µM [1]: 60%
viability at 15 µM [1]: 60%
Cell viability [%] PC-3 (15 µM) ([2]; 15 µM, 72 h, MTS, % of viable cells compared to untreated cells 100%): 61%

Cn1c(=O)c(-c2nc3ccccc3s2)cc2ccccc21 [C00003]
viability at 72 h, 15 µM [6]: 88%
viability at 10 µM [1]: 55%
viability at 15 µM [1]: 72%
viability at 25 µM [1]: 65%
viability at 15 µM [2, 8]: 61%

Cn1c(=O)c(-c2nc3ccccc3o2)cc2ccccc21 [C00004]
viability at 10 µM [1]: 98%
viability at 15 µM [1]: 98%
viability at 25 µM [1]: 98%
